Assays:
parental C17.2 cells = experiment: Co-culture of parental C17.2 cells with primary E16 ventral mesencephalic cells; TH expression; assay type: cell-based, mouse; conditions: parental C17.2 cells in co-culture; SR11237 to 1 μM, bFGF to 10 ng/ml
Experimental: (§1) C17.2 neural stem cells (Snyder, E. Y. et al. Cell 68, 33-51 (1992)) were maintained and passaged as previously described (Snyder, E. Y. et al. Cell 68, 33-51 (1992)). Ventral mesencephala from E16 rat embryos were dissected, mechanically dissociated and plated at a final density of 1×10^5 cells/cm^2 on poly-D-lysine coated culture wells in a defined, serum-free medium (N^2, consisting of a 1:1 mixture of F12 and DMEM containing insulin (10 ng/ml), transferrin (100 μg/ml), putrescine (100 μM), progesterone (20 nM), selenium (30 nM) glucose (6 mg/ml), and bovine serum albumin (1 mg/ml)). After 24 hours in vitro, co-cultures were initiated by directly plating 2.5−5×10^4 C17.2-derived cells into the primary cultures; all ages of cultures given use this point as 0 DIV. […]
(§2) Fixed cultures were incubated with one of the following antibodies, diluted appropriately in phosphate-buffered saline (PBS) containing 1% bovine serum albumin and 0.3% Triton-X 100: mouse anti-BrdU, 1:50 (DAKO, Denmark), mouse anti-β-tubulin, Type III (TuJ1), 1:250 (Sigma), mouse anti-TH, 1:1000 (Incstar, USA), rabbit anti-β-galactosidase, 1:250 (Cappel, USA) rabbit anti-GFAP, 1:500 (DAKO, Denmark), rabbit anti-AHD-2, 1:4000. […] Quantitative immunocytochemical data represent means and standard errors from 100-500 cells counted in each of 3-6 separate wells from 2-4 experiments. […]

RXR retinoid receptors = conditions: Lehmann et al. 1992; cited from earlier work
Nurr1-C17.2 clone 42 = experiment: Co-culture of Nurr1-C17.2 clone 42 with primary E16 ventral mesencephalic cells; TH expression; assay type: cell-based, mouse; conditions: clone 42 with primary VM cells
Experimental: as §1, §2

[1] = test system: Nurr1 over-expressing C17.2 clones; experiment: Treatment of Nurr1 clones with trophic factors, mitogens, cytokines and other agents; TH immunoreactivity; assay type: cell-based, mouse; conditions: Nurr1 clones without co-culture; factors alone or combined
From the text: C17.2 cells were cotransfected with a CMX-Nurr1 expression vector (Perlmann, T. et al. Genes Dev. 9, 769-782 (1995)) and PGK-puromycin resistance plasmids (Nurr1 clones) or a PGK-puromycin alone (mock clones). For reporter assays, C17.2 parental cells were transfected with the Nurr1 expression vector, the reporter plasmid (NGFIB-binding response element (NBRE) triplet upstream of TK minimal promoter fused to firefly luciferase) and a pRSV-alkaline phosphatase plasmid at a 2:1:2 ratio.
(§3) C17.2 neural stem cells (Snyder, E. Y. et al. Cell 68, 33-51 (1992)) were maintained and passaged as previously described (Snyder, E. Y. et al. Cell 68, 33-51 (1992)). Ventral mesencephala from E16 rat embryos were dissected, mechanically dissociated and plated at a final density of 1×10^5 cells/cm^2 on poly-D-lysine coated culture wells in a defined, serum-free medium (N^2, consisting of a 1:1 mixture of F12 and DMEM containing insulin (10 ng/ml), transferrin (100 μg/ml), putrescine (100 μM), progesterone (20 nM), selenium (30 nM) glucose (6 mg/ml), and bovine serum albumin (1 mg/ml)). After 24 hours in vitro, co-cultures were initiated by directly plating 2.5−5×10^4 C17.2-derived cells into the primary cultures; all ages of cultures given use this point as 0 DIV. […] Purified Type 1 astrocytes were obtained from mixed glial cultures derived from various regions of P1 rats according to a standard protocol (McCarthy, K. D. et al. J. Cell Biol. 85, 890-902 (1980)). After replating into 6- or 12-well plates, astrocytes were grown to confluency in serum-containing media and changed to N2 medium. After 3-5 DIV, co-cultures were initiated in fresh N2 as described above. All factors were added once, at the initiation of co-culture (concentrations are noted in the Results and Discussion), with the exception of 5-bromodeoxyuridine (BrdU), which was added 4-6 hours prior to fixation. Cultures were maintained in a humidified 5% CO2, 95% air incubator at 37 C and fixed after given time periods with 4% paraformaldehyde for 45 minutes for immunocytochemical analysis.
Fixed cultures were incubated with one of the following antibodies, diluted appropriately in phosphate-buffered saline (PBS) containing 1% bovine serum albumin and 0.3% Triton-X 100: mouse anti-BrdU, 1:50 (DAKO, Denmark), mouse anti-β-tubulin, Type III (TuJ1), 1:250 (Sigma), mouse anti-TH, 1:1000 (Incstar, USA), rabbit anti-β-galactosidase, 1:250 (Cappel, USA) rabbit anti-GFAP, 1:500 (DAKO, Denmark), rabbit anti-AHD-2, 1:4000. Incubations were either carried out at 4° C. overnight, or at room temperature for 1 hour. […] After washing, cultures were incubated for 1-3 hr with appropriate secondary antibodies (biotinylated horse-anti-mouse IgG or goat-anti-rabbit IgG, Vector, USA), 1:100, in the same dilution buffer. Immunostaining was visualized with the Vector Laboratory ABC immunoperoxidase kit, using either AEC (red) or SG (grey) substrates. […] Quantitative immunocytochemical data represent means and standard errors from 100-500 cells counted in each of 3-6 separate wells from 2-4 experiments. For quantitation of TH expression in co-cultures of primary and C-17.2-derived cells, TH was visualized with the brightfield AEC substrate, while β-gal was assessed using FITC, thus all data expressed as “% TH+” represents the number of TH+/β-gal+divided by total β-gal positive cells.

C17.2 clonal lines = experiment: Baseline proliferation of clonal lines after extended factor treatment in serum-free medium; assay type: cell-based, mouse; conditions: after extended treatment with the factor in serum-free medium; most clonal lines
Experimental: as §3, with “Cultures were maintained in a humidified 5% CO2, 95% air incubator at 37 C and fixed after given time periods with 4% paraformaldehyde for 45 minutes for immunocytochemical analysis.” left out

C17.2 cells = conditions: Kitchens et al. 1994; cited from earlier work
[2] = test system: Nurr1-c42-derived dopaminergic neurons; experiment: Response of TH positive c42 cells in co-culture to neurotrophic factors; assay type: cell-based, mouse; conditions: 9 DIV, after SR11237 and bFGF induction; compared to N2 control; NT-3 30 ng/ml
Experimental: as §1, §2

Nurr1 clones = experiment: bFGF pretreatment of Nurr1 clones before co-culture with primary ventral mesencephalic cultures; BrdU labeling and TH expression; assay type: cell-based, mouse; conditions: bFGF pretreatment 5 DIV
Experimental: as §1, §2

## CC1(C)CCC(C)(C)c2cc(C3(c4ccc(C(=O)O)cc4)OCCO3)ccc21 [SR11237, reference compound]
Parental C17.2 cells
  induction of TH expression: did not induce expression of TH
RXR retinoid receptors
  stimulation of RXR retinoid receptors: specifically stimulates RXR retinoid receptors

## CC1=C(/C=C/C(C)=C/C=C/C(C)=C/C(=O)O)C(C)(C)CCC1 [all-trans retinoic acid, reference compound]
Nurr1-C17.2 clone 42
  effect on TH expression in co-culture (in words): without effect

## NCCc1ccc(O)c(O)c1 [dopamine]
[1]
  induction of TH expression: None of these factors induced TH expression in any of the clones

## EGF: epidermal growth factor, mitogen (NSDSECPLSHDGYCLHDGVCMYIEALDKYACNCVVGYIGERCQYRDLKWWELR; Epidermal growth factor; UniProt P01133 971-1023, looked up)
[1]
  induction of TH expression: None of these factors induced TH expression in any of the clones
C17.2 clonal lines
  baseline proliferation after passage into SFM alone: remained unexpectedly elevated
C17.2 cells
  mitogenic effect: directly mitogenic
Nurr1-C17.2 clone 42
  effect on TH expression in co-culture (in words): effects of bFGF could be substituted by EGF

## bFGF: basic fibroblast growth factor, mitogen
[1]
  induction of TH expression: None of these factors induced TH expression in any of the clones
C17.2 clonal lines
  baseline proliferation after passage into SFM alone: remained unexpectedly elevated
C17.2 cells
  mitogenic effect: directly mitogenic
Parental C17.2 cells
  induction of TH expression: did not induce expression of TH
[2]
  number of TH+ cells in the culture: dramatically increased the number of TH+ cells
Nurr1 clones; co-culture 9 DIV, highest value, clone 42
  % TH+ cells after co-culture: ≤ 45%
Nurr1 clones; 24 hours after passage into co-culture, versus cells split directly out of serum-containing medium
  BrdU labeling of pretreated Nurr1 clones: increased

## insulin-like growth factor
[1]
  induction of TH expression: None of these factors induced TH expression in any of the clones

## sonic hedgehog
[1]
  induction of TH expression: None of these factors induced TH expression in any of the clones
